Laboratory results as given in US10981932B2, “Macrocyclic indole derivatives” (Bayer Aktiengesellschaft, priority 2016, dated 2021).
Counter-ions that a name gives are not always drawn. Like-named read-outs stand apart in the source and are kept apart here.

Key:
SUDHL5 [1] = assay: Induction of cytotoxicity (CellTiter-Glo, 5 h), SUDHL5
SUDHL10 [2] = assay: Induction of cytotoxicity (CellTiter-Glo, 5 h), SUDHL10
OPM2 = assay: Anti-proliferative effect (CellTiter-Glo, 72 h), OPM2; assay type: cell-based; details: OPM2 cells, median, read-out: IC50 antiproliferation assay OPM2 [M] (median)
Method in brief: (§1)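 Plate cells alongside a separate day 0 reference plate. Read the reference plate at once with CellTiter-Glo. Incubate treated cells 72 h at 37 °C, then read them the same way by luminescence.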

A2780 = assay: Anti-proliferative effect (CellTiter-Glo, 72 h), A2780; assay type: cell-based; details: A2780 cells, median, read-out: IC50 antiproliferation assay A2780 [M] (median)
Method in brief: as §1

SUDHL5 [3] = assay: Induction of caspase-3/7 activity (Caspase-Glo 3/7), SUDHL5; assay type: cell-based; details: caspase-3/7 induction, SUDHL5 cells, 3 h treatment, median
Method in brief: (§2)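 A 3 h, 37 °C compound incubation precedes the Caspase-Glo 3/7 read. After subtracting medium-only signal, EC50s are fitted against the reference compound's maximal caspase induction.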

MV-4-11 = assay: Anti-proliferative effect (CellTiter-Glo, 72 h), MV-4-11; assay type: cell-based; details: median, read-out: IC50 antiproliferation assay MV-4-11 [M] (median)
Method in brief: as §1

MCL-1 = MCL-1 (Homo sapiens, UniProt Q07820); assay: Protein-protein interaction assay MCL-1/Noxa BH3 peptide (MCL-1 assay), TR-FRET; assay type: binding; details: MBP-MCL-1 / Noxa BH3-derived peptide, median
Method in brief: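 Steady-state competition, MCL-1/Noxa BH3, TR-FRET readout; 1 nM MBP-MCL-1, 11-point dose series 0.1 nM–20 μM; overnight 4 °C equilibration; 4-parameter IC50.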

SUDHL5 [4] = assay: Anti-proliferative effect (CellTiter-Glo, 72 h), SUDHL5; assay type: cell-based; details: SUDHL5 cells, antiproliferation, median, read-out: Antiproli SUDHL5 [M] (median)
Method in brief: as §1

SUDHL10 [5] = assay: Anti-proliferative effect (CellTiter-Glo, 72 h), SUDHL10; assay type: cell-based; details: SUDHL10 cells, antiproliferation, median, read-out: Antiproli SUDHL10 [M] (median)
Method in brief: as §1

SUDHL10 [6] = assay: Induction of caspase-3/7 activity (Caspase-Glo 3/7), SUDHL10; assay type: cell-based; details: caspase-3/7 induction, SUDHL10 cells, 3 h treatment, median
Method in brief: as §2

[7] = Homo sapiens, MV4-11, 72 h, MV-4-11 cells
[8] = Homo sapiens, SU-DHL-5, 72 h, 72 h incubation
[9] = read-out: Cytotox SUDHL5 [M] (median), SUDHL5 cells, cytotoxicity induction, CellTiter-Glo, 5 h incubation, median
[10] = read-out: Cytotox SUDHL10 [M] (median), SUDHL10 cells, cytotoxicity induction, CellTiter-Glo, 5 h incubation, median
[11] = read-out: Cytotox SUDHL5 [M] (median), SUDHL5 cells, cytotoxicity induction, CellTiter-Glo, 5 h, median
[12] = read-out: Cytotox SUDHL10 [M] (median), SUDHL10 cells, cytotoxicity induction, CellTiter-Glo, 5 h, median

Chain of MCL-1 (Q07820 whole entry): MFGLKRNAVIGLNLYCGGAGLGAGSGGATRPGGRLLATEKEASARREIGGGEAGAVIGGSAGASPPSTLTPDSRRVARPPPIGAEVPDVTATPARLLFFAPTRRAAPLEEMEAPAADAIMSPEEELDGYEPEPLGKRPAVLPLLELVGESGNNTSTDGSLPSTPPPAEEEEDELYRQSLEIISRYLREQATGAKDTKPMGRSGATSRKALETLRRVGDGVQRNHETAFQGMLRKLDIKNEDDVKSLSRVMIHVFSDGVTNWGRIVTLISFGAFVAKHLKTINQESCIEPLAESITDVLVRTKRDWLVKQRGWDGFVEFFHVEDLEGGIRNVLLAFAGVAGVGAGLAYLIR

| SMILES | IC50 (MV-4-11; [7]) [M] | IC50 (MCL-1) [µM] | IC50 (A2780) [M] | EC50 (SUDHL5 [3]) [µM] | EC50 (SUDHL10 [6]) [µM] | IC50 (SUDHL5 [4]; 72 h incubation) [M] | IC50 (SUDHL10 [5]; 72 h incubation) [M] | IC50 (SUDHL5 [4]; 72 h) [M] | IC50 (SUDHL10 [5]; 72 h) [M] | IC50 (SUDHL5 [1]; [9]) [M] | IC50 (SUDHL10 [2]; [10]) [M] | IC50 (SUDHL5 [1]; [11]) [M] | IC50 (SUDHL10 [2]; [12]) [M] | also measured |
| --- | --- | --- | --- | --- | --- | --- | --- | --- | --- | --- | --- | --- | --- | --- |
| Cn1nc(COc2ccc(N3CCN(S(C)(=O)=O)CC3)cc2)c2c1COCCCCn1c(C(=O)O)c(CCCOc3cccc4ccccc34)c3cccc-2c31 (racemic) [Example 1-8, (rac)-1-methyl-3-({4-[4-(methylsulfonyl)piperazin-1-yl]phenoxy}methyl)-7-[3-(naphthalen-1-yloxy)propyl]-1,10,11,12,13,15-hexahydropyrazolo[4′,3′:9,10][1,6]oxazacycloundecino[8,7,6-hi]indole-8-carboxylic Acid] | 3.57e-06 | 0.00187 | – | – | – | – | – | – | – | – | – | – | – | IC50 (SUDHL5 [1]; Homo sapiens, SU-DHL-5, 5 h, read-out: Cytotox SUDHL5 [M] (median), SUDHL5 cells, cytotoxicity induction, CellTiter-Glo, 5 h incubation, median): 8.33e-07 M; IC50 (SUDHL10 [2]; Homo sapiens, SU-DHL10, 5 h, read-out: Cytotox SUDHL10 [M] (median), SUDHL10 cells, cytotoxicity induction, CellTiter-Glo, 5 h incubation, median): 1.07e-06 M; IC50 (OPM2; Homo sapiens, OPM-2, 72 h): 1.24e-06 M; IC50 (A2780; Homo sapiens, A2780, 72 h): 6.31e-06 M; EC50 (SUDHL5 [3]; Homo sapiens, SU-DHL-5, 3 h): 0.579 µM; IC50 (SUDHL5 [4]; [8]): 9.83e-07 M; IC50 (SUDHL10 [5]; Homo sapiens, SU-DHL10, 72 h, 72 h incubation): 1.44e-06 M; EC50 (SUDHL10 [6]; Homo sapiens, SU-DHL10, 3 h): 0.953 µM |
| COCC(=O)N1CCN(c2ccc(OCc3nn(C)c4c3-c3cccc5c(CCCOc6cccc7ccccc67)c(C(=O)O)n(c35)CCCCOC4)cc2)CC1 (single isomer, unassigned; enantiomer 2) [Example 1-29, 3-({4-[4-(methoxyacetyl)piperazin-1-yl]phenoxy}methyl)-1-methyl-7-[3-(naphthalen-1-yloxy)propyl]-1,10,11,12,13,15-hexahydropyrazolo[4′,3′:9,10][1,6]oxazacycloundecino[8,7,6-hi]indole-8-carboxylic Acid (Enantiomer 2)] | 2.58e-06 | 0.00119 | 2.38e-05 | 2.64 | 5.26 | – | – | – | – | 3.29e-06 | 6.87e-06 | – | – | IC50 (OPM2): 4.53e-06 M; IC50 (SUDHL5 [4]; [8]): 3.26e-06 M |
| Cc1cc(OCCCc2c(C(=O)O)n3c4c(cccc24)-c2c(C)nn(C)c2COCCC3)cc(C)c1Cl (single isomer, unassigned; enantiomer 2) [Example 015, 1-[3-(4-chloro-3,5-dimethylphenoxy)propyl]-9,11-dimethyl-5,6,8,9-tetrahydro-4H-pyrazolo[4′,3′:8,9][1,5]oxazecino[7,6,5-hi]indole-2-carboxylic acid-N-ethylethanamine Salt (Enantiomer 2)] | 1.33e-05 | 0.00958 | 1.23e-05 | 25.7 | 29.2 | 1.13e-05 | 8.48e-06 | – | – | 2.1e-05 | 2.87e-05 | – | – | – |
| CCc1c2c(nn1CCN1CCOCC1)COCCCCn1c(C(=O)O)c(CCCOc3cccc4ccccc34)c3cccc-2c31 (single isomer, unassigned; enantiomer 2) [Example 203, 3-ethyl-2-[2-(morpholin-4-yl)ethyl]-7-[3-(naphthalen-1-yloxy)propyl]-2,10,11,12,13,15-hexahydropyrazolo[4′,3′:9,10][1,6]oxazacycloundecino[8,7,6-hi]indole-8-carboxylic Acid (Enantiomer 2)] | 2.8e-06 | 0.0021 | 2.21e-05 | 1.61 | 7.45 | 2.19e-06 | 1.78e-06 | – | – | 1.32e-06 | 4.31e-06 | – | – | – |
| Cn1nc(CN2CCCCC2)c2c1COCCCCn1c(C(=O)O)c(CCCOc3cccc4ccccc34)c3cccc-2c31 (single isomer, unassigned; enantiomer 2) [Example 334, 1-methyl-7-[3-(naphthalen-1-yloxy)propyl]-3-(piperidin-1-ylmethyl)-1,10,11,12,13,15-hexahydropyrazolo[4′3′:9,10][1,6]oxazacycloundecino[8,7,6-hi]indole-8-carboxylic Acid (Enantiomer 2)] | 1.47e-05 | 0.0917 | 2.87e-05 | 16.9 | 25.7 | – | – | 1.68e-05 | 1.54e-05 | – | – | 1.85e-05 | 2.67e-05 | – |
| Cn1nc(CN2CC3(COC3)C2)c2c1COCCCCn1c(C(=O)O)c(CCCOc3cccc4ccccc34)c3cccc-2c31 (single isomer, unassigned; enantiomer 2) [Example 345, 1-methyl-7-[3-(naphthalen-1-yloxy)propyl]-3-(2-oxa-6-azaspiro[3.3]hept-6-ylmethyl)-1,10,11,12,13,15-hexahydropyrazolo[4′,3′:9,10][1,6]oxazacycloundecino[8,7,6-hi]indole-8-carboxylic acid-N-ethylethanamine Salt (Enantiomer 2)] | – | 0.026 | 1.59e-05 | 7.02 | 12.8 | – | – | 7.32e-06 | 5.68e-06 | – | – | 8.32e-06 | 1.32e-05 | IC50 (MV-4-11; Homo sapiens, MV4-11, MV-4-11 cells): 7.47e-06 M |

Further lines, with some results ahead:

| IC50 (MV-4-11; [7]) [M] | IC50 (MCL-1) [µM] | IC50 (A2780) [M] | EC50 (SUDHL5 [3]) [µM] | EC50 (SUDHL10 [6]) [µM] | IC50 (SUDHL5 [4]; 72 h incubation) [M] | IC50 (SUDHL10 [5]; 72 h incubation) [M] | IC50 (SUDHL5 [4]; 72 h) [M] | IC50 (SUDHL10 [5]; 72 h) [M] | SMILES | IC50 (SUDHL5 [1]; [9]) [M] | IC50 (SUDHL10 [2]; [10]) [M] | IC50 (SUDHL5 [1]; [11]) [M] | IC50 (SUDHL10 [2]; [12]) [M] | also measured |
| --- | --- | --- | --- | --- | --- | --- | --- | --- | --- | --- | --- | --- | --- | --- |
| 2.34e-05 | 0.0115 | – | – | – | – | – | – | – | Cc1nn(C)c2c1-c1cccc3c(CCCOc4cccc5ccccc45)c(C(=O)O)n(c13)CCCCOC2 (single isomer, unassigned; enantiomer 1) [Example 317, (+)-1,3-dimethyl-7-[3-(naphthalen-1-yloxy)propyl]-1,10,11,12,13,15-hexahydropyrazolo[4′,3:9,10][1,6]oxazacycloundecino[8,7,6-hi]indole-8-carboxylic Acid (Enantiomer 1)] | – | – | – | – | IC50 (SUDHL5 [1]; Homo sapiens, SU-DHL-5, 5 h, read-out: Cytotox SUDHL5 [M] (median), SUDHL5 cells, cytotoxicity induction, CellTiter-Glo, 5 h, median): 1.55e-05 M; IC50 (SUDHL10 [2]; Homo sapiens, SU-DHL10, 5 h, read-out: Cytotox SUDHL10 [M] (median), SUDHL10 cells, cytotoxicity induction, CellTiter-Glo, 5 h, median): > 3.3e-05 M; IC50 (A2780; Homo sapiens, A2780, 72 h): > 3.3e-05 M; EC50 (SUDHL5 [3]; Homo sapiens, SU-DHL-5, 3 h): 24.5 µM; IC50 (SUDHL5 [4]; Homo sapiens, SU-DHL-5, 72 h, 72 h): 2.71e-05 M; IC50 (SUDHL10 [5]; Homo sapiens, SU-DHL10, 72 h, 72 h): > 3.3e-05 M; EC50 (SUDHL10 [6]; Homo sapiens, SU-DHL10, 3 h): > 33 µM |
| 1.2e-05 | 0.0308 | 1.21e-05 | 25 | > 33 | 1.44e-05 | 2.02e-05 | – | – | CCc1c2c(nn1C)CN(C)CCCn1c(C(=O)O)c(CCCOc3cccc4ccccc34)c3cccc-2c31 (single isomer, unassigned; enantiomer 2) [Example 143, 11-ethyl-7,10-dimethyl-1-[3-(1-naphthyloxy)propyl]-4,5,6,7,8,10-hexahydropyrazolo[3′,4′:7,8][1,5]diazecino[9,10,1-hi]indole-2-carboxylic acid-N-ethylethanamine Salt (Enantiomer 2)] | 1.36e-05 | 2.69e-05 | – | – | – |
| – | 0.0131 | > 3.3e-05 | 26.4 | > 33 | – | – | 1.84e-05 | 2.72e-05 | Cc1nn(C)c2c1-c1cccc3c(CCCOc4cccc5ccccc45)c(C(=O)O)n(c13)CCCCOC2 (single isomer, unassigned; enantiomer 2) [Example 318, (−)-1,3-dimethyl-7-[3-(naphthalen-1-yloxy)propyl]-1,10,11,12,13,15-hexahydropyrazolo[4′,3′:9,10][1,6]oxazacycloundecino[8,7,6-hi]indole-8-carboxylic Acid (Enantiomer 2)] | – | – | 1.62e-05 | > 3.3e-05 | IC50 (MV-4-11; MV-4-11 cells): 3.28e-05 M |
